Test results from ChEMBL document CHEMBL1135988, “Synthesis and biological evaluation of new citrate-based siderophores as potential probes for the mechanism of iron uptake in mycobacteria” (2002).

These compounds were tested on Mycobacterium avium subsp. paratuberculosis (assay: Ability to act as growth factor for Mycobacterium paratuberculosis at 2.4 uM concentration, expressed as growth index).
Type: functional, mycobacteria paratuberculosis

CCCCC/C=C/C(=O)N(O)CCCNC(=O)CC1(O)CC(=O)N(CCCN(O)C(=O)/C=C/CCCCC)C1=O (centres undefined) was tested. Which GI did it give?
Its GI is 4.6.

For CC(C)(C)OC(=O)C(O)(CC(=O)NCCCN(O)C(=O)/C=C/c1ccccc1)CC(=O)NCCCN(O)C(=O)/C=C/c1ccccc1, which GI is on record?
Its GI is 4.6.

Which GI does the source give for O=C(CC(O)(CC(=O)NCCCN(O)C(=O)/C=C/c1ccccc1)C(=O)O)NCCCN(O)C(=O)/C=C/c1ccccc1 here?
Its GI is 0.76.

For COC(=O)[C@H](CCCCN(O)C(=O)/C=C/c1ccccc1)NC(=O)CC(O)(CC(=O)N[C@@H](CCCCN(O)C(=O)/C=C/c1ccccc1)C(=O)OC)C(=O)O, which GI is on record?
Its GI is 2.5.

For O=C(CC(O)(CC(=O)NCCCCN(O)C(=O)/C=C/c1ccccc1)C(=O)O)NCCCCN(O)C(=O)/C=C/c1ccccc1, which GI is on record?
The GI was 1.5.

Which GI does the source give for CCCCC/C=C/C(=O)N(O)CCCNC(=O)CC(O)(CC(=O)NCCCN(O)C(=O)/C=C/CCCCC)C(=O)O here?
The GI was 1.

How did the GI turn out when CCCCCCCCCCCCC/C=C/C(=O)N(O)CCCC[C@H](NC(=O)[C@@H]1COC(c2ccccc2O)=N1)C(=O)OC(C(C)C)C(C)C(=O)N[C@H]1CCCCN(O)C1=O (some centres undefined) was run?
The GI was 1.

With CC(=O)N(O)CCCCCNC(=O)CCC(=O)N(O)CCCCCNC(=O)CCC(=O)N(O)CCCCCN [DEFEROXAMINE] as the compound, how does the GI read?
Its GI is 0.92.

With CCCCC/C=C/C(=O)N(O)CCCNC(=O)CC(O)(CC(=O)NCCCN(O)C(=O)/C=C/CCCCC)C(=O)OC(C)(C)C as the compound, how does the GI read?
The GI was 0.69.
